Measured values taken from patent US5698529A, “Chemotherapeutic compositions” (Supratek Pharma, Inc., priority 1996, dated 1997).
In brackets after ≈: the same amount, converted by molar mass. Like-named read-outs stand apart in the source and are kept apart here.

Experiments:
[1] = test system: SKVO3 cells; assay: cells; type: cell-based; details: Homo sapiens
Source text: (§1) The antineoplastic agent vinblastine is incorporated into the block copolymer mixture described in Example 3.
(§2) The antineoplastic agent mitomycin C is incorporated into the block copolymer mixture described in Example 3.
(§3) The antineoplastic agent methotrexate is incorporated into the block copolymer mixture described in Example 3.
(§4) The antineoplastic agent daunorubicin is incorporated into the block copolymer mixture described in Example 3.

[2] = test system: SKVLB cells; assay: cells; type: cell-based; details: Homo sapiens
Source text: as §1, §2, §3, §4

[3] = SKVO3, drug-sensitive, read-out: IC50

Compound	IC50 [1, 3]	IC50 [1]	IC50 [2]
CN(Cc1cnc2nc(N)nc(N)c2n1)c1ccc(C(=O)N[C@@H](CCC(=O)O)C(=O)O)cc1 [free methotrexate, methotrexate]	1.09 µg/mL (≈ 2.4 µM)	–	–
CO[C@@]12[C@H](COC(N)=O)C3=C(C(=O)C(C)=C(N)C3=O)N1C[C@@H]1N[C@@H]12 [free mitomycin, mitomycin C]	–	0.32 µg/mL (≈ 0.957 µM)	1.12 µg/mL (≈ 3.35 µM)
CC[C@]1(O)C[C@@H]2CN(CCc3c([nH]c4ccccc34)[C@@](C(=O)OC)(c3cc4c(cc3OC)N(C)[C@H]3[C@@](O)(C(=O)OC)[C@H](OC(C)=O)[C@]5(CC)C=CCN6CC[C@]43[C@@H]65)C2)C1 [free vinblastine, vinblastine]	0.095 µg/mL (≈ 0.117 µM)	–	0.615 µg/mL (≈ 0.758 µM)
